This note sets out measurements from a melting point compilation (Tetko et al.).

`CCOC(=O)Cn1cc(Br)ccc1=O` showed a melting point of 81 to 83 °C.
`Nc1cc(Cl)c(Cl)c(C(=O)O)c1` gave a melting point of 199 to 201 °C.
In turn, `N=C(N)Nc1nc2ccccc2o1` showed a melting point of 179 to 181 °C.
The value for `NCc1cccc(NC(N)=O)c1` was 143 to 145 °C.
On to `O=Cc1coc(-c2ccccc2)n1`, for which the melting point fell in the range of 90 to 92 °C.
Compound `CC(C)(C)OC(=O)NC1CC2CCCC(C1)C2N` (configuration not stated) displayed a melting point of 110 to 112 °C.
For `COc1ccccc1C(CN)NC(=O)OC(C)(C)C` (configuration not stated) the value was 145 to 147 °C; for `CCOc1cc(CC#N)cc(Cl)c1OC(F)F`, 79 to 81 °C.
With `O=C1CCOc2c(F)cc(F)cc21`, the melting point lay within 135 to 137 °C.
`CN1CCN(S(=O)(=O)c2ccc(Cl)c([N+](=O)[O-])c2)CC1` gave a melting point of 276 to 278 °C.
Turning to `COc1cc(Br)c(S(=O)(=O)Cl)cc1C(=O)O`, the melting point fell in the range of 196 to 198 °C.
`NC(CC(=O)O)c1ccc(C(F)(F)F)cc1` (configuration not stated) gave a melting point of 219 to 221 °C.
Compound `NC(=O)c1cn[nH]c1N` yielded a melting point of 184 to 186 °C.
Turning to `CCOC(=O)c1[nH]c2c(c1C)C(=O)CCC2`, the melting point was in the range of 159 to 161 °C.
For `COc1ccc(Br)cc1Cc1nnn[nH]1`, the melting point was in the range of 180 to 182 °C.
Take `COC(=O)c1ccc(C(=O)OC)c(S(=O)(=O)Cl)c1`: the melting point is 63 to 67 °C.
For `Cc1ccc2[nH]cc(C(=O)C(F)(F)F)c2c1` the value was 243 to 245 °C; for `COc1ccc(CC(O)C(=O)O)cc1` (configuration not stated), 84 to 86 °C; for `CS(=O)c1ccc(C=O)cc1` (configuration not stated), 88 to 90 °C.
As to `O=C(O)c1ccc2cccnn12`, the melting point was in the range of 132 to 134 °C.
For `CCn1ncc(C#N)c1N` the value was 159 to 161 °C; for `CN(Cc1ccccc1)C(=O)NCCC(=O)O`, 120 to 122 °C.
On to `Cc1cc(C)c(-c2csc(N)n2)cc1C`, for which the melting point lay within 252 to 254 °C.
On to `NCCc1ccc(CO)cc1`, for which the melting point lay in the range of 35 to 37 °C.
Turning to `O=C(CCl)c1ccc2c(c1)CCC2`, the melting point lay in the range of 47 to 58 °C.
In turn, `NS(=O)(=O)c1cc(C(=O)O)cs1` returned a melting point of 194 to 196 °C.
In turn, `Cn1ccnc1C(O)(CCN)C(F)(F)F` (configuration not stated) gave a melting point of 115 to 117 °C.
In turn, `Cn1c(=O)c2c(ncn2CCCC(=O)O)n(C)c1=O` yielded a melting point of 167 to 169 °C.
The value for `NC(=O)CCOc1ccccc1F` was 85 to 87 °C; that for `COC(=O)c1nnc2c(Cl)cccn12` was 52 to 55 °C; that for `CCOc1ccc(/C=C/C(=O)O)cc1OC` was 202 to 204 °C.
The value for `O=C1CCCc2cc(C(=O)O)ccc2N1` was 267 to 269 °C; that for `C=CCNC(=O)NC(=O)CCl` was 113 to 115 °C; that for `CC(C)(C)c1ccc(C2(C(=O)O)CCC2)cc1` was 179 to 181 °C.
`CN1CCC(=O)Nc2cc(F)ccc21`: the melting point lay in the range of 143 to 145 °C.
`CCOC(=O)c1sc(N)c(C(=O)c2ccccc2)c1C` came in with a melting point of 119 to 121 °C.
As to `O=S1(=O)C=CC(N=C=S)C1` (configuration not stated), the melting point lay in the range of 61 to 63 °C.
With `Cn1ccc(C(=O)N2CCCC(C(=O)O)C2)cc1=O` (configuration not stated), the melting point was in the range of 208 to 210 °C.
`O=C(O)CCCc1ccc(Cl)c(Cl)c1`: the melting point was 69 to 71 °C.
Consider `Cc1ccnn1-c1cccc(N)c1`, for which the melting point lay in the range of 93 to 95 °C.
Compound `CCC(Nc1ccccc1)C(N)=O` (configuration not stated) gave a melting point of 122 to 124 °C.
Compound `Cc1cc(C(=O)O)cc(S(N)(=O)=O)c1C` came in with a melting point of 266 to 268 °C.
Consider `N#Cc1ccc(F)cc1N=C=O`, for which the melting point was in the range of 36 to 38 °C.
The value for `O=C(O)c1cc([N+](=O)[O-])ccc1SCCO` was 163 to 165 °C; that for `CCOC(=O)c1ccc(S(=O)(=O)N2CCC(C(=O)O)CC2)o1` was 170 to 172 °C.
As for `COC(=O)c1ccn2cncc2c1`, the melting point lay within 93 to 95 °C.
Compound `Nc1ccc2[nH]c(CC3CCCCC3)nc2c1` displayed a melting point of 267 to 269 °C.
Consider `Cc1cc(C)n(N)c(=O)c1C#N`, for which the melting point was in the range of 164 to 166 °C.
`NC(=O)Nc1cccnc1` returned a melting point of 189 to 191 °C.
`Cc1ccc(C)c(C(C)Nc2ccc(C(=O)O)cc2C)c1` (configuration not stated) gave a melting point of 211 to 213 °C.
Turning to `CNC(CO)c1ccc(OC)cc1` (configuration not stated), the melting point lay in the range of 57 to 59 °C.
On to `Nc1onc(C2CCCC2)c1-c1ccc2c(c1)OCO2`, for which the melting point was 122 to 124 °C.
For the compound `O=Cc1ccc(Br)nc1`, the melting point lay in the range of 104 to 110 °C.
Consider `O=S(=O)(Cl)c1ccc(Cl)c2c(Cl)cccc12`, for which the melting point is 115 to 117 °C.
In turn, `N#Cc1ccc(S(N)(=O)=O)cc1Cl` yielded a melting point of 157 to 159 °C.
`CC1CNc2cc(F)ccc2C(=O)N1` (configuration not stated): the melting point fell in the range of 169 to 171 °C.
In turn, `Cc1nn(Cc2c(Cl)cccc2Cl)c(Cl)c1C(=O)O` yielded a melting point of 187 to 189 °C.
`O=C(O)CC1(C(=O)O)CCN(C(=O)OCc2ccccc2)C1` (configuration not stated): the melting point was 169 to 171 °C.
The value for `N#Cc1cccc(-n2cccn2)n1` was 116 to 118 °C; that for `CC(C)Nc1ccc(C(=O)O)cn1` was 249 to 251 °C.
As for `CCOC(=O)c1cnn(C)c1-c1ccccc1`, the melting point was in the range of 59 to 61 °C.
Take `NC(=NO)c1cccc(Br)c1`: the melting point lay in the range of 132 to 134 °C.
Consider `CC(C)c1nnc(CCC(=O)O)o1`, for which the melting point was 84 to 86 °C.
Consider `Nc1ccc(S(N)(=O)=O)cc1N`, for which the melting point was 145 to 154 °C.
For `Cc1ccc([N+](=O)[O-])cc1S(=O)(=O)Nc1ccccc1C(=O)O` the value was 290 to 292 °C; for `Cc1cc(F)cc2c(Cl)c(C#N)cnc12`, 137 to 139 °C; for `COC(=O)Cc1nn[nH]n1`, 154 to 156 °C.
The compound `Nc1cc(S(=O)(=O)Nc2ccc(Cl)cc2)ccc1N1CCOCC1` returned a melting point of 55 to 58 °C.
On to `Nc1cc([N+](=O)[O-])ccc1OC(F)F`, for which the melting point lay within 75 to 77 °C.
Consider `Cn1ccc(C(=O)NC2(C(=O)O)CCCCCC2)cc1=O`, for which the melting point is 242 to 244 °C.
The compound `Cc1c[nH]c(=O)n1-c1cccc(C(=O)O)c1` returned a melting point of 289 to 291 °C.
Take `c1n[nH]c2cc3c(cc12)OCO3`: the melting point was 199 to 201 °C.
In turn, `O=C(O)CCNS(=O)(=O)c1ccc(Br)cc1` gave a melting point of 161 to 163 °C.
Regarding `NNc1ccc(-n2cccn2)nn1`, the melting point is 194 to 196 °C.
As for `CNCc1c(C)nn(-c2ccccc2C)c1C`, the melting point fell in the range of 41 to 43 °C.
Turning to `COc1ccccc1NS(=O)(=O)c1cccc(N)c1`, the melting point was in the range of 35 to 37 °C.
Consider `CC(C)(C)OC(=O)N1CC(CC(=O)O)C1`, for which the melting point was 109 to 111 °C.
For the compound `Nc1ncc(Cc2ccccc2F)s1`, the melting point was in the range of 97 to 99 °C.
The value for `Cc1ccc(-n2nc(C)c(C(=O)O)n2)c(C)c1` was 178 to 180 °C; that for `CC(C)(C)OC(=O)NCc1nc(-c2ccc(N)cc2)n[nH]1` was 214 to 216 °C.
Compound `O=C(O)C1SCCc2ccccc21` (configuration not stated) gave a melting point of 130 to 132 °C.
On to `COC(=O)c1cc2c(OC)c(OC)c(OC)cc2[nH]1`, for which the melting point fell in the range of 136 to 138 °C.
Consider `O=C(O)CCc1ccoc1`, for which the melting point lay in the range of 63 to 65 °C.
As to `Cc1nc(COc2cccc(C(=O)O)c2)cs1`, the melting point is 153 to 155 °C.
Turning to `CCN1CCCC1CNC(=O)C1CCNCC1` (configuration not stated), the melting point lay within 191 to 194 °C.
The compound `O=C(O)C1CCCn2ccnc21` (configuration not stated) displayed a melting point of 156 to 158 °C.
`N#Cc1c(CCCN)n[nH]c1N` gave a melting point of 169 to 171 °C.
As to `Cn1c(CO)nc2cc(C(F)(F)F)ccc21`, the melting point was 170 to 172 °C.
`CCC1(C(=O)O)CCOCC1` showed a melting point of 83 to 85 °C.
The value for `NC(=S)c1cccc(-c2nnc(N)o2)c1` was 259 to 261 °C; that for `O=C(O)CCNC(=O)c1ccc2cn[nH]c2c1` was 234 to 236 °C; that for `O=C1C(=O)N(Cc2ccc(Br)cc2)c2ccccc21` was 182 to 184 °C.
The compound `CCNc1nc(C(=O)OCC)cs1` showed a melting point of 92 to 94 °C.
The value for `CC(=O)c1ccc(S(=O)(=O)N(C)C)cc1` was 99 to 101 °C.
In the case of `O=C1NC(=O)C(c2cccc(O)c2)N1` (configuration not stated), the melting point was 213 to 215 °C.
`Cc1ccc(N=C=O)c(C#N)c1` registered a melting point of 52 to 54 °C.
With `CC(C)(C)OC(=O)NC1CCN(c2ccc(C#N)cn2)CC1`, the melting point lay in the range of 188 to 190 °C.
On to `Cc1cc(CO)nc(N2CCCCC2)n1`, for which the melting point lay within 51 to 53 °C.
As to `CCC1(c2cccc(Cl)c2)NC(=O)NC1=O` (configuration not stated), the melting point lay within 159 to 161 °C.
Turning to `CC(C)Cn1cnc2c1c(=O)[nH]c(=O)n2CC(C)C`, the melting point was in the range of 158 to 160 °C.
For `CCOC(=O)c1c(CCCO)cnc2nc(C(=O)OC)nn12` the value was 86 to 88 °C.
Regarding `CCCCC(NC(N)=O)C(=O)O` (configuration not stated), the melting point is 166 to 168 °C.
Compound `O=C(O)CCC(=O)N1CC(=O)Nc2ccccc21` had a melting point of 181 to 183 °C.
As for `O=C1NCCOc2ccccc21`, the melting point is 110 to 112 °C.
The value for `Cc1n[nH]c(C)c1C=O` was 85 to 87 °C.
`O=c1cc(CCl)c2cc3c(cc2o1)CCC3` registered a melting point of 142 to 144 °C.
`COc1ccnc(Cl)n1` registered a melting point of 57 to 58 °C.
`Cc1ccc(C)c(SCc2cccc(C(=O)O)c2)c1` returned a melting point of 129 to 131 °C.
`Nc1ccc(S(=O)(=O)C2CCCC2)cc1` yielded a melting point of 113 to 115 °C.
For `Oc1ccc2ccccc2c1CN1CCOCC1`, the melting point is 52 to 54 °C.
For `COC(=O)C(C)Oc1ccc(F)cc1Br` (configuration not stated) the value was 38 to 40 °C.
The compound `O=C1NC(=O)C(c2ccc(F)c(Br)c2)N1` (configuration not stated) gave a melting point of 173 to 175 °C.
In turn, `NC(=S)Cc1ccc(F)cc1` came in with a melting point of 109 to 111 °C.
For `CN(C)C(N)=NC(=N)N` the value was 223 to 226 °C.
`COC(=O)c1ccc(S(=O)(=O)Cl)cc1` registered a melting point of 65 to 70 °C.
For `CCc1cc(NN)nc(-c2ccccn2)n1` the value was 110 to 112 °C; for `CCc1ccc(-c2nn[nH]n2)cc1`, 237 to 239 °C.
Take `Nc1ccc(S(N)(=O)=O)cc1Br`: the melting point lay within 153 to 155 °C.
The compound `NCC(=O)Nc1ccccc1-n1cncn1` displayed a melting point of 118 to 120 °C.
The value for `O=C1CC2(CCCCC2)Oc2cc(O)ccc21` was 169 to 171 °C; that for `COc1ccc(-c2cc(C(=O)O)n(-c3ccccc3)n2)cc1` was 190 to 192 °C.
`Nc1ncc([N+](=O)[O-])cc1C(=O)O`: the melting point is 239 to 241 °C.

In general, melting point refers to the temperature, or range, at which the solid turns liquid.
